Experiment: Solubility of the malonic acid derivative in toluene
Format: physicochemical
Details: based on total weight of the solution

solubility in toluene: greater than 1 weight percent
SMILES: CC(CC=C(C(=O)O)C(=O)O)CC(C)(C)C (stereo not shown) [Example 3, 2-(3,5,5-Trimethylhexylidene)propanedioic Acid]
